Patent US9133207B2, “Tetrandrine derivatives with substituted 5-carbon, preparation method and use thereof” (Hangzhou Bensheng Pharmaceutical Co., Ltd., priority 2011, dated 2015)
In brackets after ≈: the same amount, converted by molar mass.

Columns and labels:
[1] = system: H9 (acute lymphoblastic leukemia, ALL); test: Leukemia cell growth inhibition, MTT, 72 h (Example 5); type: cell-based, human; conditions: 72 h, MTT; for IC50 / IC90: Homo sapiens
Text: (§1) Leukemia cell lines: leukemia cell lines: K562/adr (drug-resistant, chronic myeloid leukemia, CML), NB4 (acute promyelocytic leukemia, AML), Kasumi-1 (acute myeloid leukemia M2 type, AML-M2), Jurkat (acute lymphoblastic leukemia, ALL), all of which are donated by Cancer Research Institute of Zhejiang University, China; and H9 (acute lymphoblastic leukemia, ALL), which is purchased from China Center for Type Culture Collection.
(§2) Reagents: The standard sample of tetrandrine (TTD) is purchased from Ci Yuan Biotechnology Co., Ltd., Shaanxi, China; and the 5-substituted tetrandrine derivatives of the present invention.
(§3) Obtaining 6000 well-growing leukemia cells and inoculating them into wells of a 96-well cell culture plate. The culture medium is a 1640 cell culture medium containing 10% fetal bovine serum. After adding the tetrandrine derivatives of different concentrations and mixing uniformly, placing the plate in a carbon dioxide cell incubator (5% CO2) at 37° C. and incubating for 72 hours. Then the viable cell concentration is determined by the MTT method.

[2] = system: Jurkat (acute lymphoblastic leukemia, ALL); test: as above; type: cell-based, human; conditions: 72 h, MTT; for IC50 / IC90: Homo sapiens, Jurkat
Text: as §1, §2, §3

[3] = system: K562/adr (drug-resistant, chronic myeloid leukemia, CML); test: as above; type: cell-based, human; conditions: 72 h, MTT; for IC50 / IC90: Homo sapiens, K562/Adr
Text: as §1, §2, §3

[4] = system: Kasumi-1 (acute myeloid leukemia M2 type, AML-M2); test: as above; type: cell-based, human; conditions: for IC50 / IC90: Homo sapiens, Kasumi 1
Text: as §1, §2, §3

[5] = system: RPMI8226 (multiple myeloma); test: Multiple myeloma cell growth inhibition, MTT, 72 h (Example 6); type: cell-based, human; conditions: 72 h, MTT, RPMI8226; for IC50 / IC90: Homo sapiens, RPMI-8226
Method: Multiple myeloma and lymphoma cell lines: RPMI8226 (multiple myeloma), purchased from Fuxiang Bio-tech Co. Ltd., Shanghai, China.
(§4) Reagents: the same as in Example 5.
Obtaining 6000 well-growing leukemia cells and inoculating them into wells of a 96-well cell culture plate. The culture medium is a 1640 cell culture medium containing 10% fetal bovine serum. After adding the tetrandrine derivatives of different concentrations and mixing uniformly, placing the plate in a carbon dioxide cell incubator (5% CO2) at 37° C. and incubated for 72 hours. Then the viable cell concentration is determined by the MTT method.

[6] = system: CaES-17 (esophageal cancer cell); test: Solid tumor cell growth inhibition, MTT, 72 h (Example 7); type: cell-based, human; conditions: 72 h, MTT, CAES-17; for IC50 / IC90: Homo sapiens, CaEs17
Method: (§5) Human solid tumor cell lines: Hep-2 (laryngeal carcinoma), A549 (human lung cancer), CaES-17 (esophageal cancer cell), PC-3 (prostate cancer), CNE (nasopharyngeal carcinoma cell) and SK-OV-3 (ovarian cancer cell), all of which are purchased from China Center For Type Culture Collection; RKO (human colon adenocarcinoma cell), MGC 803 (human gastric cancer cell), MG63 (osteosarcoma), and U87 MG (malignant glioma cell), all of which are purchased from Fuxiang Bio-tech Co. Ltd., Shanghai, China; PANC-1 (pancreatic cancer), Huh? (human liver cancer cell), Becap37 (human breast cancer cell), and Hela (human cervical cancer cell), all of which are donated by Cancer Research Institute of Zhejiang University, China.
as §4
(§6) Obtaining 4000 well-growing human solid tumor cells and inoculating them into wells of a 96-well cell culture plate. The culture medium is DMEM High Glucose cell culture medium containing 10% fetal bovine serum. The plate is placed in a carbon dioxide cell incubator (5% CO2) at 37° C. and incubated for 24 hours. After been added with tetrandrine derivatives of different concentration and mixing uniformly, the plate is placed in a carbon dioxide cell incubator (5% CO2) at 37° C. and incubated for 72 hours. Then the viable cell concentration is determined by the MTT method and the cell viability (%) after drug treatment is calculated. In this experiment, the cell viability of control group (not treated with any compound) is set as 100%.

MG63 (osteosarcoma) = test: as above; type: cell-based, human; conditions: 72 h, MTT, MG-63; for IC50 / IC90: Homo sapiens
Method: as §5, §4, §6

[7] = system: PANC-1 (pancreatic cancer); test: as above; type: cell-based, human; conditions: 72 h, MTT, PANC-1; for IC50 / IC90: Homo sapiens
Method: as §5, §4, §6

PC-3 (prostate cancer) = test: as above; type: cell-based, human; conditions: 72 h, MTT, PC-3
Method: as §5, §4, §6

A549 (human lung cancer) = test: as above; type: cell-based; conditions: 72 h, MTT, A549; for IC50 / IC90: Homo sapiens
Method: as §5, §4, §6

[8] = system: Becap37 (human breast cancer cell); test: as above; type: cell-based; conditions: 72 h, MTT, Becap-37; for IC50 / IC90: Homo sapiens
Method: as §5, §4, §6

[9] = system: Huh7 (human liver cancer cell); test: as above; type: cell-based; conditions: 72 h, MTT, Huh-7; for IC50 / IC90: Homo sapiens
Method: as §5, §4, §6

[10] = system: MGC 803 (human gastric cancer cell); test: as above; type: cell-based; conditions: for IC50 / IC90: Homo sapiens
Method: as §5, §4, §6

## COc1ccc2cc1Oc1ccc(cc1)C[C@H]1c3cc(c(OC)cc3CCN1C)Oc1c(OC)c(OC)c(CO)c3c1[C@H](C2)N(C)CC3 [BS-TE-213]
[1]
  H9 IC50: >16 µg/mL
  H9 IC90: >16 µg/mL
[2]
  Jurkat IC50: >16 µg/mL
  Jurkat IC90: >16 µg/mL
[3]
  K562/ADR IC50: 3.70 µg/mL
  K562/ADR IC90: 11.11 µg/mL
[4]
  Kasumi-1 IC50: 7.74 µg/mL
  Kasumi-1 IC90: >16 µg/mL
[5]
  RPMI8226 IC50: 1.95 µg/mL
  RPMI8226 IC90: 8 µg/mL
[6]
  CAES-17 IC50: 9.89 µg/mL
  CAES-17 IC90: 30.16 µg/mL
MG63 (osteosarcoma)
  MG-63 IC50: 9.93 µg/mL
  MG-63 IC90: 26.11 µg/mL
[7]
  PANC-1 IC50: >10 µg/mL
  PANC-1 IC90: >10 µg/mL
PC-3 (prostate cancer)
  PC-3 IC50: >10 µg/mL
  PC-3 IC90: >10 µg/mL
A549 (human lung cancer)
  A549 IC50: >16 µg/mL
  A549 IC90: >16 µg/mL
[8]
  Becap-37 IC50: 9.95 µg/mL
  Becap-37 IC90: >10 µg/mL
[9]
  Huh-7 IC50: 8.54 µg/mL
  Huh-7 IC90: 15.09 µg/mL
[10]
  MGC-803 IC50: 18.95 µg/mL
  MGC-803 IC90: 64.43 µg/mL

## COc1ccc2cc1Oc1ccc(cc1)C[C@H]1c3cc(c(OC)cc3CCN1C)Oc1c(OC)c(OC)c(COC(=O)c3ccccc3)c3c1[C@H](C2)N(C)CC3 [BS-TE-224]
[1]
  IC50: 2.99 µg/mL (≈ 3.95 µM)
  IC90: 4.75 µg/mL (≈ 6.28 µM)
[2]
  IC50: 3.39 µg/mL (≈ 4.48 µM)
  IC90: 7.65 µg/mL (≈ 10.1 µM)
[3]
  IC50: 0.67 µg/mL (≈ 0.885 µM)
  IC90: 4.65 µg/mL (≈ 6.14 µM)
[4]
  IC50: 3.19 µg/mL (≈ 4.21 µM)
  IC90: 7.36 µg/mL (≈ 9.72 µM)
[5]
  IC50: 0.27 µg/mL (≈ 0.357 µM)
  IC90: 1.44 µg/mL (≈ 1.9 µM)
[6]
  IC50: 2.4 µg/mL (≈ 3.17 µM)
  IC90: 7.23 µg/mL (≈ 9.55 µM)
MG63 (osteosarcoma)
  IC50: 2.76 µg/mL (≈ 3.65 µM)
  IC90: 4.51 µg/mL (≈ 5.96 µM)
[7]
  IC50: 5.68 µg/mL (≈ 7.5 µM)
  IC90: 8.76 µg/mL (≈ 11.6 µM)
PC-3 (prostate cancer); Homo sapiens
  IC50: 6.38 µg/mL (≈ 8.43 µM)
  IC90: 9 µg/mL (≈ 11.9 µM)
A549 (human lung cancer)
  IC50: > 16 µg/mL
  IC90: > 16 µg/mL
[8]
  IC50: 2.85 µg/mL (≈ 3.77 µM)
  IC90: 4.18 µg/mL (≈ 5.52 µM)
[9]
  IC50: 2.4 µg/mL (≈ 3.17 µM)
  IC90: 3.93 µg/mL (≈ 5.19 µM)
[10]
  IC50: 2.45 µg/mL (≈ 3.24 µM)
  IC90: 3.72 µg/mL (≈ 4.91 µM)

## COc1ccc2cc1Oc1ccc(cc1)C[C@H]1c3cc(c(OC)cc3CCN1C)Oc1c(OC)c(OC)c(CNc3nccs3)c3c1[C@H](C2)N(C)CC3 [BS-TE-320]
[1]
  IC50: 1.98 µg/mL (≈ 2.69 µM)
  IC90: 3.36 µg/mL (≈ 4.57 µM)
[2]
  IC50: 2 µg/mL (≈ 2.72 µM)
  IC90: 6.19 µg/mL (≈ 8.42 µM)
[3]
  IC50: 0.84 µg/mL (≈ 1.14 µM)
  IC90: 3.36 µg/mL (≈ 4.57 µM)
[4]
  IC50: 0.78 µg/mL (≈ 1.06 µM)
  IC90: 3.65 µg/mL (≈ 4.97 µM)
[5]
  IC50: 0.06 µg/mL (≈ 0.0816 µM)
  IC90: 2 µg/mL (≈ 2.72 µM)
[6]
  IC50: 2.11 µg/mL (≈ 2.87 µM)
  IC90: 12.2 µg/mL (≈ 16.6 µM)
MG63 (osteosarcoma)
  IC50: 1.1 µg/mL (≈ 1.5 µM)
  IC90: 2.18 µg/mL (≈ 2.97 µM)
[7]
  IC50: 3.52 µg/mL (≈ 4.79 µM)
  IC90: 9.25 µg/mL (≈ 12.6 µM)
A549 (human lung cancer)
  IC50: 2.98 µg/mL (≈ 4.05 µM)
  IC90: 7.85 µg/mL (≈ 10.7 µM)
[8]
  IC50: 1.6 µg/mL (≈ 2.18 µM)
  IC90: 2.17 µg/mL (≈ 2.95 µM)
[9]
  IC50: 2 µg/mL (≈ 2.72 µM)
  IC90: 3.92 µg/mL (≈ 5.33 µM)
[10]
  IC50: 1.72 µg/mL (≈ 2.34 µM)
  IC90: 2.76 µg/mL (≈ 3.76 µM)

## COc1ccc2cc1Oc1ccc(cc1)C[C@H]1c3cc(c(OC)cc3CCN1C)Oc1c(OC)c(OC)c(CN(C)C)c3c1[C@H](C2)N(C)CC3 [BS-TE-341]
[1]
  IC50: 6.87 µg/mL (≈ 10.1 µM)
  IC90: 22.1 µg/mL (≈ 32.5 µM)
[2]
  IC50: 9.14 µg/mL (≈ 13.4 µM)
  IC90: > 16 µg/mL
[3]
  IC50: 1.8 µg/mL (≈ 2.65 µM)
  IC90: 16 µg/mL (≈ 23.5 µM)
[4]
  IC50: 5.64 µg/mL (≈ 8.3 µM)
  IC90: 16 µg/mL (≈ 23.5 µM)
[5]
  IC50: 0.35 µg/mL (≈ 0.515 µM)
  IC90: 3.31 µg/mL (≈ 4.87 µM)
[6]
  IC50: 4.8 µg/mL (≈ 7.06 µM)
  IC90: 25.8 µg/mL (≈ 37.9 µM)
MG63 (osteosarcoma)
  IC50: 3.16 µg/mL (≈ 4.65 µM)
  IC90: 9.8 µg/mL (≈ 14.4 µM)
[7]
  IC50: > 10 µg/mL
  IC90: > 10 µg/mL
A549 (human lung cancer)
  IC50: > 16 µg/mL
  IC90: > 16 µg/mL
[8]
  IC50: 9.8 µg/mL (≈ 14.4 µM)
  IC90: > 10 µg/mL
[9]
  IC50: 4.71 µg/mL (≈ 6.93 µM)
  IC90: 7.88 µg/mL (≈ 11.6 µM)
[10]
  IC50: 9.67 µg/mL (≈ 14.2 µM)
  IC90: 15.1 µg/mL (≈ 22.2 µM)

## COc1ccc2cc1Oc1ccc(cc1)C[C@H]1c3cc(c(OC)cc3CCN1C)Oc1c(OC)c(OC)c(CN)c3c1[C@H](C2)N(C)CC3 [BS-TE-361]
[3]
  IC50: 1.64 µg/mL (≈ 2.52 µM)
  IC90: 4 µg/mL (≈ 6.14 µM)
[4]
  IC50: 0.8 µg/mL (≈ 1.23 µM)
  IC90: 2.78 µg/mL (≈ 4.27 µM)
[7]
  IC50: 5.07 µg/mL (≈ 7.78 µM)
  IC90: 10.7 µg/mL (≈ 16.4 µM)
A549 (human lung cancer)
  IC50: 1.66 µg/mL (≈ 2.55 µM)
  IC90: 5.1 µg/mL (≈ 7.82 µM)

## COc1ccc2cc1Oc1ccc(cc1)C[C@H]1c3cc(c(OC)cc3CCN1C)Oc1c(OC)c(OC)c(CSc3ccccc3)c3c1[C@H](C2)N(C)CC3 [BS-TE-421]
[3]
  IC50: 0.9 µg/mL (≈ 1.21 µM)
  IC90: 7.91 µg/mL (≈ 10.6 µM)
[4]
  IC50: 3.02 µg/mL (≈ 4.05 µM)
  IC90: 7.51 µg/mL (≈ 10.1 µM)
[5]
  IC50: 0.19 µg/mL (≈ 0.255 µM)
  IC90: 1.28 µg/mL (≈ 1.72 µM)
MG63 (osteosarcoma)
  IC50: 1.08 µg/mL (≈ 1.45 µM)
  IC90: 4.46 µg/mL (≈ 5.99 µM)
[7]
  IC50: 3.76 µg/mL (≈ 5.05 µM)
  IC90: 6.73 µg/mL (≈ 9.03 µM)
A549 (human lung cancer)
  IC50: 3.4 µg/mL (≈ 4.56 µM)
  IC90: 8 µg/mL (≈ 10.7 µM)
[8]
  IC50: 3.5 µg/mL (≈ 4.7 µM)
  IC90: 4.86 µg/mL (≈ 6.52 µM)
[9]
  IC50: 1.52 µg/mL (≈ 2.04 µM)
  IC90: 3.27 µg/mL (≈ 4.39 µM)
[10]
  IC50: 3.44 µg/mL (≈ 4.62 µM)
  IC90: 4.8 µg/mL (≈ 6.44 µM)
